The values below come from US8575368B2, “Proanthocyanidin of cashew apple, composition containing proanthocyanidin, and application thereof” (Nichirei Biosciences, Inc., priority 2008, dated 2013).

pIC50: −log10 of the molar value. Where a name gives a salt, the structure may show the parent alone. Read-outs that look alike come from different tables or passages of the source.

Test [1] deals with lipase from Pseudomonas sp. (type XIII). The experiment in a line: Bacterial lipase inhibitory activity test (4-methylumbelliferyl oleate fluorescence). It is filed as biochemical. As to conditions: 0.1 μg/ml lipase solution. The source says: In order to extensively evaluate lipase inhibitory activities of the product of the present invention and of a plurality of known components, lipase derived from commercially available bacteria of Pseudomonas (Pseudomonas sp.) was used. Pseudomonas is a […] of gram-negative aerobic bacteria. A representative example of well-known bacteria is P. aeruginosa. In the experiment, lipase from Pseudomonas sp. (type XIII, ≧15 units/solid, L9518, Sigma-Aldrich Japan) was used. This lipase is a very potent enzyme. From the preliminary inquiry to the inhibitory activity test, 0.1 μg/ml of a lipase solution was used. In the experiment, fractions obtained in Examples 2 and 3 containing proanthocyanidin polymers derived from cashew apple of the present invention were subjected to the assay. The following reagent was used as a control sample to assay lipase inhibitory activity.
Assay was carried out in accordance with Non-Patent Document 2 (J. Agric. Food Chem., 2007, 55, 4604-4609). A specimen diluent and a blank solution (a specimen diluent) were added to a 96-well fluorescence plate and then at 25 μl/well. A lipase solution prepared with the use of PBS(−) (lipase from Pseudomonas sp. Type XIII, SIGMA) was added to the test of the present invention at 25 μl/well and PBS(−) was added to the blind test group at 25 μl/well. A 0.1 mM fluorescent substrate solution (4-methylumbelliferyl oleate, Fluka) prepared with the use of PBS(−) was added thereto at 50 μl/well, and the reaction was then allowed to proceed for 20 minutes. A 0.1 M sodium citrate solution (pH 4.2) was added as a reaction terminator at 100 μl/well, and fluorescence intensity was assayed using a fluorescence plate reader (Ex 365 nm, Em 450 nm). Lipase inhibitory activity was determined by the following formula. 3,4-Dihydroxycinnamic acid and gallic acid were dissolved in an aqueous solution of 10% methanol, and a blank solvent was subjected to the assay with the use of an aqueous methanol solution at the same concentration.
<Calculation Formula> Lipase inhibitory activity(%)=(1−(A−B)/(C−D))×100 A: fluorescence intensity in the blind test using a sample solution B: fluorescence intensity in the test of the present invention using a sample solution C: fluorescence intensity in the blind test using a blank solution (a dilute solvent) D: fluorescence intensity in the test of the present invention using a blank solution (a dilute solvent)
Enzyme inhibitory activities of the sample solutions were assayed at a plurality of concentrations, the data were logarithmically plotted, and the concentration at which 50% of lipase activity was inhibited (IC50) was determined by the least-square method.
Using the powders prepared by fractionation via ultrafiltration and lyophilization in Example 3, the relationship between the molecular weight and the bacterial lipase inhibitory activity was examined. The lipase inhibitory activity test was carried out in the manner described in Example 9.

Test [2] in a line: Assay of antioxidation activity via DPPH radical elimination. As to conditions: 30° C., 30 minutes, absorbance 517 nm. How it is done: A solution of a stable radical, diphenyl-p-picrylhydradil (DPPH), in ethanol was used to evaluate the antioxidation activity. Ethanol (1,200 μl) and 400 μl of specimens (adjusted at an arbitrary concentration) were mixed with 1,600 μl of 250 mM acetate buffer (pH 5.5), and the mixture was preincubated at 30° C. for 5 minutes. A 500 μM DPPH/ethanol solution (800 μl) was added thereto, the resulting mixture was allowed to stand at 30° C. for 30 minutes, and the absorbance at 517 nm was assayed. When the control sample dissolved in ethanol was used as a specimen, 800 μl of ethanol, 400 μl of a solution of specimens in ethanol, and 400 μl of purified water were mixed, and the resulting mixture was preincubated at 30° C. for 5 minutes. A 500 μM DPPH/ethanol solution (800 μl) was added thereto, the resulting mixture was allowed to stand at 30° C. for 30 minutes, and the absorbance at 517 nm was assayed. A solution prepared in the same manner except for the use of purified water was used as a control sample. Based on the absorbance assayed, the percentage of radical elimination was determined by the following formula. Radical elimination(%)=(1−[absorbance of sample]/[absorbance of control])×100
The concentration of the sample in the sample solution was gradually changed to determine the percentage of radical elimination, the concentration of the sample solution at which the percentage of DPPH radical elimination became 50% was determined, and the determined value was designated as the 50% elimination concentration of DPPH radicals. As the value is reduced, the capacity for radical elimination is enhanced.
For orientation: Loss of DPPH colour is used to gauge radical scavenging.

In test [3] the target is T1, lipase (Sus scrofa, UniProt P00591).
T1 sequence (P00591 1-450): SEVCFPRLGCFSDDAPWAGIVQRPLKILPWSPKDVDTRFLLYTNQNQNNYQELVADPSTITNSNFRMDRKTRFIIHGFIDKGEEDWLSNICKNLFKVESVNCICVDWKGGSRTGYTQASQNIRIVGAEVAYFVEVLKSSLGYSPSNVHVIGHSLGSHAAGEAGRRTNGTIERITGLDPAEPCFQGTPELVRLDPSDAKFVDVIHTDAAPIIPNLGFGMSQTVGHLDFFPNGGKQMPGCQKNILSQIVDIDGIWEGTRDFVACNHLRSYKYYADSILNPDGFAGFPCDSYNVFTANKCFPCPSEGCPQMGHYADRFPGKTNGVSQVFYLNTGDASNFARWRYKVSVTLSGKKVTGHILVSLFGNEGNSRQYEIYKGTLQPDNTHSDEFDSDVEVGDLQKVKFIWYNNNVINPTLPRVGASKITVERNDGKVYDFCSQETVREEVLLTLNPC
As to conditions: cited from earlier work; for pIC50: read-out: Lipase inhibitory activity (IC50).

Test [4] concerns the target T2, lipase from porcine pancreas Type II (Sus scrofa, UniProt P00591).
T2 construct: lipase from porcine pancreas Type II, SIGMA; purchased SIGMA; host or cells: porcine pancreas
Kind of test: Lipase inhibitory activity assay (4-methylumbelliferyl oleate fluorescence). It is filed as biochemical. To be noted: final specimen concentration; porcine pancreatic lipase. How it is done:
Assay was carried out in accordance with Non-Patent Document 2 (J. Agric. Food Chem., 2007, 55, 4604-4609). A specimen solution was added to a 96-well fluorescence plate at 25 μl/well. A lipase solution (lipase from porcine pancreas Type II, SIGMA) prepared with the use of PBS(−) was added to the plate of the test group at 25 μl/well and PBS(−) was added to the plate of the blind test group at 25 μl/well. A 0.1 mM fluorescent substrate solution (4-methylumbelliferyl oleate, Fluka) prepared with the use of PBS(−) was added thereto at 50 μl/well, and the reaction was then allowed to proceed for 20 minutes. A 0.1 M sodium citrate solution (pH 4.2) was added as a reaction terminator at 100 μl/well, and fluorescence intensity was assayed using a fluorescence plate reader (Ex 365 nm, Em 450 nm). In a blank test, samples of the test group and of the blind test group were prepared and fluorescence intensity was assayed in the same manner as described above, except that the same amount of a solvent used for the preparation of a specimen solution was used instead of “specimen solution.” The percentage of lipase inhibition was determined by the following formula. […]

The target in test [5] is T1, lipase. To be noted: Non-Patent Document 2; read-out: Lipase inhibitory activity (IC50) (converted); cited from earlier work.

Regarding `O=C(O)C=Cc1ccc(O)c(O)c1` [3,4-Dihydroxycinnamic acid], the “Activity of bacterial lipase inhibition (IC50)” value in test [1] turned out to be 42.3 µg/mL. In addition, in test [2], the “50% Elimination concentration of DPPH radicals” value (from here on “50% Elimination concentration”) came out at 2.8 µg/mL.
A word on the pIC50: it is the IC50 on a negative log10 scale, so that one unit is a factor of ten. In the case of “(−)-epigallocatechin 3-O-gallate [Epigallocatechin gallate]”, the pIC50 at lipase [3] (Patent Document 4) was 6.55; on lipase [3] (Patent Document 5), 6.46. Further, the “Lipase inhibitory activity (IC50)” value at lipase [3] (Patent Document 5, value in brackets) is 0.16 µg/mL; in test [4], 20.0 µg/mL. Also, in test [1], the “Activity of bacterial lipase inhibition (IC50)” value was 918.8 µg/mL. In addition, in test [2], the “50% Elimination concentration” value was 2.0 µg/mL.
As to `O=C1O[C@H]([C@@H](O)CO)C(O)=C1O` [L(+)-ascorbic acid], in test [2], the “50% Elimination concentration” value came to 3.9 µg/mL.
As usually defined, the IC50 is the point on the concentration scale where inhibition reaches its midpoint. Take `O=C(/C=C/c1ccc(O)c(O)c1)O[C@@H]1C[C@](O)(C(=O)O)C[C@@H](O)[C@H]1O` [Chlorogenic acid, chlorogenic acid]: the negative logarithm of the IC50 (pIC50) in test [4] is 3.66. In addition, the IC50 at lipase [5] is 169 µM. Besides, the “Activity of bacterial lipase inhibition (IC50)” value in test [1] was found to be 69.2 µg/mL.
As to `O.O=C(O)c1cc(O)c(O)c(O)c1` [Gallic acid monohydrate], in test [1], the “Activity of bacterial lipase inhibition (IC50)” value is 574.2 µg/mL. For the same molecule, in test [2], the “50% Elimination concentration” value is 1.2 µg/mL.
With `CN(C)[C@@H]1C(O)=C(C(N)=O)C(=O)[C@@]2(O)C(O)=C3C(=O)c4c(O)cccc4[C@@](C)(O)[C@H]3C[C@@H]12` [Tetracycline hydrochloride], the “Activity of bacterial lipase inhibition (IC50)” value in test [1] was found to be 134.6 µg/mL.
